Results: article PMC5564600 (Oncotarget, 2017)

Key:
Test in all cases: biochemical
Format in all cases: binding
panel of 442 kinases [1] = biological target: T1, panel of 442 kinases (Homo sapiens, UniProt O75116); conditions: kinase ROCK2; for remaining activity at 1 µM: read-out: ROCK2 (% of control at 1 µM)
T1 construct: purchased Ambit Biosciences (scanMAXX KINOMEscan)

panel of 442 kinases [2] = biological target: T2, panel of 442 kinases (Homo sapiens, UniProt Q9Y4K4); conditions: kinase MAP4K5; for remaining activity at 1 µM: read-out: % of control at 1 µM
T2 construct: purchased Ambit Biosciences (scanMAXX KINOMEscan)
T2 sequence (Q9Y4K4 whole entry): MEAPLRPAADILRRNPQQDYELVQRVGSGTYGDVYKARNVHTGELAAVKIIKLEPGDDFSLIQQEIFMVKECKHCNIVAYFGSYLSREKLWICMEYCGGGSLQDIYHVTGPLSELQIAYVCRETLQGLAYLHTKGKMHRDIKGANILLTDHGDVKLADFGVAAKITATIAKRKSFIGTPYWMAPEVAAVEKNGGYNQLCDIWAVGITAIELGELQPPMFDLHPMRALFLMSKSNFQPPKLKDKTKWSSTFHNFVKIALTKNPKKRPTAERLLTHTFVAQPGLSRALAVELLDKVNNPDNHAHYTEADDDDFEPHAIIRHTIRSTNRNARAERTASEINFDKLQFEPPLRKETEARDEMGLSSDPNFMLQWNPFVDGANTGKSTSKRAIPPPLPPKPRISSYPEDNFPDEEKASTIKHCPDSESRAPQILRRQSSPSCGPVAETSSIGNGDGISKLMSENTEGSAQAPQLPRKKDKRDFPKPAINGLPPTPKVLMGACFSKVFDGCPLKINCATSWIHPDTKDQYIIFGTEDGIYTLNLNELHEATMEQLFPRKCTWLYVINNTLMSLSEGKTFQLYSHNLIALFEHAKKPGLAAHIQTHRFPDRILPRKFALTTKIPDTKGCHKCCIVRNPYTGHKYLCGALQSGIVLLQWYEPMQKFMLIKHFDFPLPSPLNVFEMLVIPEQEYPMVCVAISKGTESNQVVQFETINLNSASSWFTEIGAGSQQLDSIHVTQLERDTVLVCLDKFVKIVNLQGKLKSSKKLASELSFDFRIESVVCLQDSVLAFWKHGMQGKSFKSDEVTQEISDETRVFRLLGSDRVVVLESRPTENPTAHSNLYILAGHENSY

panel of 442 kinases [3] = biological target: T3, panel of 442 kinases (Homo sapiens, UniProt Q06418); conditions: kinase TYRO3; for remaining activity at 1 µM: read-out: TYRO3 (% of control at 1 µM)
T3 construct: purchased Ambit Biosciences (scanMAXX KINOMEscan)
T3 sequence (Q06418 41-890): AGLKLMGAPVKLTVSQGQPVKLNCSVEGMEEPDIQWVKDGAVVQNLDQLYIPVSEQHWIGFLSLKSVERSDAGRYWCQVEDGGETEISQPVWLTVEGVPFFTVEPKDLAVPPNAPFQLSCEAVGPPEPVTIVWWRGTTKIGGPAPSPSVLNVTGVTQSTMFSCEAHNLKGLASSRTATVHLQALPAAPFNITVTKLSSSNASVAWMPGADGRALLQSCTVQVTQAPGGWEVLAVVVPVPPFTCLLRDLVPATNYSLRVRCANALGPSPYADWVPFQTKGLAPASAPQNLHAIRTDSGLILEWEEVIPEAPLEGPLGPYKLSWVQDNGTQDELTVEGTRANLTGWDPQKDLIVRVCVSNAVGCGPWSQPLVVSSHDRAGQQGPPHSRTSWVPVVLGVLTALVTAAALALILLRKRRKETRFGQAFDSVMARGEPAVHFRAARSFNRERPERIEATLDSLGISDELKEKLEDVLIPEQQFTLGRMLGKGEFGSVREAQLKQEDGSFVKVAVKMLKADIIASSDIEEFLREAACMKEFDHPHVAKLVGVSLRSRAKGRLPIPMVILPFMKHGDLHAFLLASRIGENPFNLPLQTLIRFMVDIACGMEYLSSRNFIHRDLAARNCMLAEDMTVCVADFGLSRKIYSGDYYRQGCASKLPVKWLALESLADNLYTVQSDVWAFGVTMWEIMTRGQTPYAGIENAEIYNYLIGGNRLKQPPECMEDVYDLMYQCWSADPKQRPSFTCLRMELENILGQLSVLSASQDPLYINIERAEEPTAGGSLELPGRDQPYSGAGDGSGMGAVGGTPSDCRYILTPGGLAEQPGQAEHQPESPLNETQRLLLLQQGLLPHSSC

panel of 442 kinases [4] = biological target: T4, panel of 442 kinases (Homo sapiens, UniProt Q9Y463); conditions: DYRK1B; for remaining activity at 1 µM: read-out: % of control at 1 µM
T4 construct: purchased Ambit Biosciences (scanMAXX KINOMEscan)
T4 sequence (Q9Y463 whole entry): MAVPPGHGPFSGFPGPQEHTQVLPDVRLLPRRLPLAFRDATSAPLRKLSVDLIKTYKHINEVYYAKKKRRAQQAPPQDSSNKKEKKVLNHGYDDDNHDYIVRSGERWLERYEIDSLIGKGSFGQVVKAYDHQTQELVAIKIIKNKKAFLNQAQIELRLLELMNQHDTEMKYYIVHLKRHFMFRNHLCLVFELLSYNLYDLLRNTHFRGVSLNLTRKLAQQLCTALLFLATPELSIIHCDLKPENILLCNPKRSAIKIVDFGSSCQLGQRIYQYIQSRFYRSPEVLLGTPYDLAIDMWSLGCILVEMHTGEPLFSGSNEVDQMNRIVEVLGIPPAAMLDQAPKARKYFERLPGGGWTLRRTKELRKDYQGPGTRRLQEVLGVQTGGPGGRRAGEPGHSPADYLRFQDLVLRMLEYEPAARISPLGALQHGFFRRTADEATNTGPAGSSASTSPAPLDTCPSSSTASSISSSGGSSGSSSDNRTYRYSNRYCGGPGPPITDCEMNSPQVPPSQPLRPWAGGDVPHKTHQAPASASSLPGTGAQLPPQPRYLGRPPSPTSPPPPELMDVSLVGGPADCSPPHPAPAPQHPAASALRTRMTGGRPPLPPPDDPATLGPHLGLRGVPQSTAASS

panel of 442 kinases [5] = biological target: T5, panel of 442 kinases (Homo sapiens, UniProt Q59H18); conditions: kinase TNNI3K; for remaining activity at 1 µM: read-out: TNNI3K (% of control at 1 µM)
T5 construct: purchased Ambit Biosciences (scanMAXX KINOMEscan)
T5 sequence (Q59H18 1-835): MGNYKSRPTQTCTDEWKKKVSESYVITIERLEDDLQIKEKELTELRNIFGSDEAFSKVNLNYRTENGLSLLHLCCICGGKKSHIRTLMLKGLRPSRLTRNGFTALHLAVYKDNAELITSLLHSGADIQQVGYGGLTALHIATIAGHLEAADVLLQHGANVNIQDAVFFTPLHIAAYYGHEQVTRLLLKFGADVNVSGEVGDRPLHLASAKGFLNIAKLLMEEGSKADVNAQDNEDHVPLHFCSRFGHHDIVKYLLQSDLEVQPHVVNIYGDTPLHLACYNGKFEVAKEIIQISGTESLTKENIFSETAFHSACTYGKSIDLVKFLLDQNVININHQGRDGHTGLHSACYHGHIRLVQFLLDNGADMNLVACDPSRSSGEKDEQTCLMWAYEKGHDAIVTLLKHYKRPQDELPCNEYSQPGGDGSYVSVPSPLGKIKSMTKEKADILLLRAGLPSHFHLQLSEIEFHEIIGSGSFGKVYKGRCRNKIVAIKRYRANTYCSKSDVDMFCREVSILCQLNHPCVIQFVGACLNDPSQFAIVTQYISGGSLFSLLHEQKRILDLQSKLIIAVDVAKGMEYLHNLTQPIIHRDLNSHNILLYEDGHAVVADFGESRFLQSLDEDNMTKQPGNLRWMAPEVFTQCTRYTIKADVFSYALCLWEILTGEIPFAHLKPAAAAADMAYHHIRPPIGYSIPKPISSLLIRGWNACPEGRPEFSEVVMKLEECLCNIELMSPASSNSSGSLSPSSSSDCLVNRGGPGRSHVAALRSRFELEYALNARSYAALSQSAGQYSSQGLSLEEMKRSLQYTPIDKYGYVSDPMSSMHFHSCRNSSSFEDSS

panel of 442 kinases [6] = biological target: T6, panel of 442 kinases (Homo sapiens, UniProt Q6XUX3); conditions: kinase RIPK5; for remaining activity at 1 µM: read-out: RIPK5 (% of control at 1 µM)
T6 construct: purchased Ambit Biosciences (scanMAXX KINOMEscan)
T6 sequence (Q6XUX3 1-929): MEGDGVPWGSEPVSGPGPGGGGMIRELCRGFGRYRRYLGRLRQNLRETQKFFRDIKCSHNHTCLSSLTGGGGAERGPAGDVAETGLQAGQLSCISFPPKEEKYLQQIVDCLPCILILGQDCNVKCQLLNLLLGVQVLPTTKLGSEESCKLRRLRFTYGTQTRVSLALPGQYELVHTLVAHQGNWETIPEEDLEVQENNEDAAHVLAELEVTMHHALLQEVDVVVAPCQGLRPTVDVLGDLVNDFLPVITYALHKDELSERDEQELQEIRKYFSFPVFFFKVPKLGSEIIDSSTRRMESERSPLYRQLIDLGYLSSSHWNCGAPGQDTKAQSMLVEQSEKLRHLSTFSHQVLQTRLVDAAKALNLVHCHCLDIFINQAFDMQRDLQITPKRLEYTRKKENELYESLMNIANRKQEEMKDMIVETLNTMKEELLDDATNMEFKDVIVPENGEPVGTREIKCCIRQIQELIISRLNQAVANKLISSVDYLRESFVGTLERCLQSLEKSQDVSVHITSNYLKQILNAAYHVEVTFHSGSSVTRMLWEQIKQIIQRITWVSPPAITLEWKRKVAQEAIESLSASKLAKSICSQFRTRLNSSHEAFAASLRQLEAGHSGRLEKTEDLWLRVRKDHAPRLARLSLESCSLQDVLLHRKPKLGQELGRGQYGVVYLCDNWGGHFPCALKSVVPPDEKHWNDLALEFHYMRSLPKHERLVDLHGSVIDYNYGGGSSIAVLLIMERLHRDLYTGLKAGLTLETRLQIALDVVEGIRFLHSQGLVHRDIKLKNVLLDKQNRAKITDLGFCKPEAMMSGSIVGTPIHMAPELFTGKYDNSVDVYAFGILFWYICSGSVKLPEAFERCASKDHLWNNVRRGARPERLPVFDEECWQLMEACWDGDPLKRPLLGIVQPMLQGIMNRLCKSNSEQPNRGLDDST

[7] = 10 µM, read-out: % of control at 10 µM

T1 sequence (O75116 whole entry): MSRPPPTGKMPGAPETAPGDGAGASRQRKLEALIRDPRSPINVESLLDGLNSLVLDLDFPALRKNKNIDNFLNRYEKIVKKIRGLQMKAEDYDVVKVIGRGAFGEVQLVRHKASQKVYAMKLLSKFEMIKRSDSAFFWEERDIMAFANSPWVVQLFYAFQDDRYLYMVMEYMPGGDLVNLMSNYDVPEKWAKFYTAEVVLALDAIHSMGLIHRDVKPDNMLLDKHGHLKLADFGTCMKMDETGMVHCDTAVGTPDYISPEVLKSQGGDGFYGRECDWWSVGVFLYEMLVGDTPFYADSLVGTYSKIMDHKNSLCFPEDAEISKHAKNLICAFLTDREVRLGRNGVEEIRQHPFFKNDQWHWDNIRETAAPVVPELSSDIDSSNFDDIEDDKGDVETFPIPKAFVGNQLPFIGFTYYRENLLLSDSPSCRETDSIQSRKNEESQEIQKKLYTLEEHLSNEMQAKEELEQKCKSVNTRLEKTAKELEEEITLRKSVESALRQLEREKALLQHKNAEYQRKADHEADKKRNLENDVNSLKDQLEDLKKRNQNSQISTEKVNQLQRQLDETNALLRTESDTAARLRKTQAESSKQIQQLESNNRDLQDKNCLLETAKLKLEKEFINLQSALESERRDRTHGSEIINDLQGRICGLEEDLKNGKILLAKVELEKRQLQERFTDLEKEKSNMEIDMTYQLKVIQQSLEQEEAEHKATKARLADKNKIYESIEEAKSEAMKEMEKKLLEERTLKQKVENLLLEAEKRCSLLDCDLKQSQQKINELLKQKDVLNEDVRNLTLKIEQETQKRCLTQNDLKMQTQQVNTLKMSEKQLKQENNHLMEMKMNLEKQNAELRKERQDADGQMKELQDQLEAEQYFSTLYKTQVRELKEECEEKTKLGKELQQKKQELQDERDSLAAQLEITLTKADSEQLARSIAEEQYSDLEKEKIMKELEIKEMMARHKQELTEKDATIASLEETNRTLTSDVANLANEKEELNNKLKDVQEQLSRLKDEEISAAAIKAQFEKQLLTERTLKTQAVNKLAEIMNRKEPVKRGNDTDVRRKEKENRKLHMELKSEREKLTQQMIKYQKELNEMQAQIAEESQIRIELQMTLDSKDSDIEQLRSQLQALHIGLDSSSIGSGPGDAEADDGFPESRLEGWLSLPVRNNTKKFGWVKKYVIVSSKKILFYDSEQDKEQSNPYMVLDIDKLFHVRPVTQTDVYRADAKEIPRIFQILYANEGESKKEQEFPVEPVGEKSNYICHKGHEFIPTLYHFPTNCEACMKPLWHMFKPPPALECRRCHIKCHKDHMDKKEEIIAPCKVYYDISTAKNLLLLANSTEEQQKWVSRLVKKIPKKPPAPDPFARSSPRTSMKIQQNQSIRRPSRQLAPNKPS

Row | SMILES | remaining activity at 1 µM (panel of 442 kinases [1]) | remaining activity at 10 µM (panel of 442 kinases [1]; 10 µM, read-out: ROCK2 (% of control at 10 µM)) | remaining activity at 1 µM (panel of 442 kinases [2]) | remaining activity at 10 µM (panel of 442 kinases [2]; [7]) | remaining activity at 1 µM (panel of 442 kinases [3]) | remaining activity at 10 µM (panel of 442 kinases [3]; 10 µM, read-out: TYRO3 (% of control at 10 µM)) | remaining activity at 1 µM (panel of 442 kinases [4]) | remaining activity at 10 µM (panel of 442 kinases [4]; [7]) | remaining activity at 1 µM (panel of 442 kinases [5]) | remaining activity at 10 µM (panel of 442 kinases [5]; 10 µM, read-out: TNNI3K (% of control at 10 µM)) | remaining activity at 1 µM (panel of 442 kinases [6]) | remaining activity at 10 µM (panel of 442 kinases [6]; 10 µM, read-out: RIPK5 (% of control at 10 µM))
1 | Nc1cc(C(F)(F)F)c(-c2cc(N3CCOCC3)nc(N3CCOCC3)n2)cn1 [Buparlisib] | 100% | 89% | 96% | 100% | 100% | 100% | 86% | 100% | 100% | 100% | 100% | 89%
2 | Cn1c(=O)n(-c2ccc(C(C)(C)C#N)cc2)c2c3cc(-c4cnc5ccccc5c4)ccc3ncc21 [Dactolisib, 2-methyl-2-[4-(3-methyl-2-oxo-8-quinolin-3-yl-2,3-dihydroimidazo[4,5-c]quinolin-1-yl)-phenyl] propionitrile] | 60% | – | 55% | – | 100% | – | 93% | – | 76% | – | 80% | –
3 | COc1ncc(-c2ccc3nccc(-c4ccnnc4)c3c2)cc1NS(=O)(=O)c1ccc(F)cc1F [Omipalisib] | 89% | – | 100% | – | 100% | – | 88% | – | 100% | – | 100% | –
4 | FC(F)c1nc2ccccc2n1-c1nc(N2CCOCC2)nc(N2CCOCC2)n1 [ZSTK474, 2-(difluoromethyl)-1-[4,6-di(4-morpholinyl)-1,3,5-triazin-2-yl]-1H-benzimidazole] | 86% | – | 99% | – | 88% | – | 97% | – | 95% | – | 92% | –
